Patent US20190135834A1, “5-SUBSTITUTED AZABENZIMIDAZOLE DERIVATIVE HAVING ???? ACTIVATION ACTION” (Shionogi & Co., Ltd., priority 2016, published 2019)

Target: T1, Human AMPK α2ß2γ1 (Homo sapiens, UniProt O43741+P54646)
T1 construct: The full length cDNAs of human AMPK ß2 (NM_005399.3) and human AMPK α2 (NM_006252.3); The full length cDNAs of human AMPK ß2 (NM_005399.3); 6xHis (N); made in house; host or cells: Escherichia coli BL21 CodonPlus (DE3)-RIL
Test: Test Example 2: evaluation of an activator for AMP-activated protein kinase (AMPK), LabChip mobility shift assay with CaMKK2-phosphorylated enzyme
Type: biochemical
Conditions: for EC150 (compound concentration showing 150% relative to the control (100%)): FL-Peptide 7 substrate, 25° C., 2 hours; for Emax / Emax (maximum rate of increase in activity within the measurement range): relative to control (100%); for Emax: read-out: Emax (maximum rate of increase in activity within the measurement range)
Procedure: The full length cDNAs of human AMPK ß2 (NM_005399.3) and human AMPK α2 (NM_006252.3) were inserted into the MCS1 and MCS2 of the pETDuet-1 vector to prepare a human AMPK ß2 and human AMPK α2 (6× His tag at the 5′ terminus) expressing plasmid. The plasmid was cotransfected with an expression plasmid, in which the full length cDNA of human AMPK γ1 (NM_002733.3) had been inserted into pET28b(+), into BL21 CodonPlus (DE3)-RIL to obtain an expression strain. The expression strain was cultured in TB medium, followed by induction with 0.5 mM IPTG, and cultured at 25° C. for 3 hours and then harvested. After ultrasonication, supernatant was collected and applied to Histrap FF column (GE) and RESOURCE Q column (GE) to prepare 12.5 mg of purified sample containing three types of subunit from 1.8 L of broth.
Preparation method of human CaMKK2 used to impart activity to AMPK An expression vector, in which the full length cDNA of human CAMKK ß (NM_172226.1) had been inserted into pGEX-6P-3, was transfected into BL21 Star (DE3). The expression strain was cultured in TB medium, followed by induction with 0.5 mM IPTG, and cultured at 25° C. for 3 hours and then harvested. After ultrasonication, supernatant was collected and applied to GSTrap FF column (GE) to prepare 14 mg of GST-fused CAMKK ß from 720 ml of broth.
Thus, phosphorylation treatment was carried out as pretreatment.
Human AMPK α2ß2γ1 in an amount to give a conversion rate of approximately 10% by reaction for 2 hours, and CaMKK2 in an amount capable of sufficiently imparting activity to AMPK for one hour were mixed in a buffer solution consisting of a 50 mM HEPES-NaOH buffer solution (pH 7.0), 100 mM NaCl, 5 mM magnesium chloride, 0.1% bovine serum albumin, 0.2 mM sodium orthovanadate(V), 1 mM ethylene glycol-bis(2-aminoethyl ether)-N,N,N′,N′-tetraacetic acid (EGTA), 5 mM disodium ß-glycerophosphate, 1 mM dithiothreitol and 0.2 mM ATP, and the resulting liquid was left to stand at 25° C. for 1 to 1.5 hours to sufficiently phosphorylate AMPK.
After that, to the enzyme liquid, which had been subjected to phosphorylation treatment, a compound dissolved in DMSO was added so as to have a 1% DMSO concentration. The resulting liquid was left to stand for 10 minutes.
To the liquid, a substrate solution consisting of a 50 mM HEPES-NaOH buffer solution (pH 7.0), 100 mM NaCl, 10 mM magnesium chloride, 0.1% bovine serum albumin, 0.2 mM sodium orthovanadate(V), 1 mM ethylene glycol-bis(2-aminoethyl ether)-N,N,N′,N′-tetraacetic acid (EGTA), 5 mM disodium ß-glycerophosphate, 2 mM dithiothreitol, 0.4 mM ATP and 3 μM FL-Peptide 7 (manufactured by Caliper Life Sciences, Inc.) was added in equal amount (10 μl in total). The resulting liquid was allowed to react at 25° C. for 2 hours, and 10 μl of 20 mM EDTA was added thereto to stop the reaction.
To detect phosphorylated fluorescent substrates, the reaction mixture was applied to a measuring device, LabChip EZ Reader II manufactured by Caliper Life Science, Inc., for detecting fluorescence by using differences in mobility due to differences in charge. The setting conditions for the device were pressure, −1.5 PSI; upstream voltage, −2250 V; downstream voltage, −400 V; post sample buffer sip time, 40 seconds; final delay, 120 seconds; and peak order, Product First.
A conversion rate was calculated from the peak heights of the obtained substrate and product. The conversion rate when not containing a compound was used as a control, and a concentration dependent curve was made by plotting the rate of increase in activity to the control at each concentration of a compound.

T1 sequence (P54646 whole entry): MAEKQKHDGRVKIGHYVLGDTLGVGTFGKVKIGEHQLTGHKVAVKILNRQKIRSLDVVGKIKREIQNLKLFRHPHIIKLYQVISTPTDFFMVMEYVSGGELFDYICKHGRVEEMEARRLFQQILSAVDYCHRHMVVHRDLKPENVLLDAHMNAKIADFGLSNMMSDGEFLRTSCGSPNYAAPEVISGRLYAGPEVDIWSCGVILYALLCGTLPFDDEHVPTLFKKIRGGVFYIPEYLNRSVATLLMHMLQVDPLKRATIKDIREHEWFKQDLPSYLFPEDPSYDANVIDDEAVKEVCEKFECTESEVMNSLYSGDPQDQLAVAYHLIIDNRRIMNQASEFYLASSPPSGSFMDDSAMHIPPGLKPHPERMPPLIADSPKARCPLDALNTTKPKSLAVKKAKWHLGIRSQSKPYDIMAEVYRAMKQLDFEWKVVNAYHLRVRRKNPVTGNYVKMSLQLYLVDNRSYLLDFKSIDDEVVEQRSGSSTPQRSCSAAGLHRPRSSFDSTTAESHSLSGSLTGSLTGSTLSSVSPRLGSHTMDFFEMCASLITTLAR
T1 sequence (O43741 whole entry): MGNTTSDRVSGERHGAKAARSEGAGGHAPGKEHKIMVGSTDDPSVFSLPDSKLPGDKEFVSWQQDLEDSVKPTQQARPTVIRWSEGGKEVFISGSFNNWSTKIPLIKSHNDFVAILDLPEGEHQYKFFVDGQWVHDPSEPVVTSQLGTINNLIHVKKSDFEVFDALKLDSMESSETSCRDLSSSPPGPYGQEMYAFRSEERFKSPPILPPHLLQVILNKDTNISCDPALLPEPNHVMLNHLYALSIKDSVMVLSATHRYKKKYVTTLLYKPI
T1 sequence (P54619 whole entry partner): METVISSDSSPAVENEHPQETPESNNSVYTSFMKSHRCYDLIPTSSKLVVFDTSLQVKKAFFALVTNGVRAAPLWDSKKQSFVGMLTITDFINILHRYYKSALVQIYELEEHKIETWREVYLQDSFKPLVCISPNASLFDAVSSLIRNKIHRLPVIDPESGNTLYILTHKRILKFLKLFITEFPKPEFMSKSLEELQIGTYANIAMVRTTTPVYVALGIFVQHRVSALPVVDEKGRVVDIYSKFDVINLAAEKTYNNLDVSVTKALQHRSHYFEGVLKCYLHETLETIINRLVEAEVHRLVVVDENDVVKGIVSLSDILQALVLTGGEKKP

| SMILES | EC150 (compound concentration showing 150% relative to the control (100%)) | Emax | Emax (maximum rate of increase in activity within the measurement range) |
| --- | --- | --- | --- |
| Cn1nccc1-c1cc(F)c2c(c1)CCC2Nc1nc2nc(O[C@@H]3CO[C@H]4[C@@H]3OC[C@H]4O)[nH]c2cc1Cl (stereo partly shown) [Compound I-2-23] | 12 nM | 709% | – |
| COCCCc1cnc2c(c1)CCC2Nc1nc2nc(O[C@@H]3CO[C@H]4[C@@H]3OC[C@H]4O)[nH]c2cc1Cl (single isomer, unassigned) [Compound I-1-10] | 8.4 nM | 608% | – |
| O[C@@H]1CO[C@H]2[C@@H]1OC[C@H]2Oc1nc2nc(NC3CCc4cc(OCC(F)F)cc(F)c43)c(Cl)cc2[nH]1 (stereo partly shown) [Compound I-2-75] | 2.7 nM | 581% | – |
| Cc1ccc(-c2cc(F)c3c(c2)CC[C@@H]3Nc2nc3nc(O[C@@H]4CO[C@H]5[C@@H]4OC[C@H]5O)[nH]c3cc2Cl)cn1 [Compound I-2-66] | 8.6 nM | 711% | – |
| OCCCOc1cc(F)c2c(c1)CCC2Nc1nc2nc(O[C@@H]3CO[C@H]4[C@@H]3OC[C@H]4O)[nH]c2cc1Cl (stereo partly shown) [Compound I-1-81] | 1.6 nM | 387% | – |
| O=C1CCCN1CCOc1cc(F)c2c(c1)CCC2Nc1nc2nc(O[C@@H]3CO[C@H]4[C@@H]3OC[C@H]4O)[nH]c2cc1Cl (stereo partly shown) [Compound I-1-98] | 3.6 nM | – | 434% |
| O[C@@H]1CO[C@H]2[C@@H]1OC[C@H]2Oc1nc2nc(N[C@H]3CCc4cc(-c5cnn(C6COC6)c5)cc(F)c43)c(Cl)cc2[nH]1 [Compound I-2-74] | 1.5 nM | 609% | – |
| O[C@@H]1CO[C@H]2[C@@H]1OC[C@H]2Oc1nc2nc(NC3CCc4cc(-c5ccoc5)cc(F)c43)c(Cl)cc2[nH]1 (stereo partly shown) [Compound I-2-21] | 4.9 nM | 650% | – |
| O[C@@H]1CO[C@H]2[C@@H]1OC[C@H]2Oc1nc2nc(NC3CCc4cc(O[C@H]5CCOC5)cc(F)c43)c(Cl)cc2[nH]1 (stereo partly shown) [Compound I-2-50] | 1.9 nM | 678% | – |
| COCCOc1cc(F)c2c(c1)CCC2Nc1nc2nc(O[C@@H]3CO[C@H](CO)C3)[nH]c2cc1Cl (stereo partly shown) [Compound I-1-104] | 2.3 nM | 423% | – |
| CS(C)(=O)=Nc1cc(F)c2c(c1)CC[C@@H]2Nc1nc2nc(O[C@@H]3CO[C@H]4[C@@H]3OC[C@H]4O)[nH]c2cc1Cl [Compound I-2-08] | 3.5 nM | 688% | – |
| CC(C)(O)Cn1cc(-c2cc(F)c3c(c2)CC[C@@H]3Nc2nc3nc(O[C@@H]4CO[C@H]5[C@@H]4OC[C@H]5O)[nH]c3cc2Cl)cn1 [Compound I-2-73] | 1.4 nM | 608% | – |
| O[C@@H]1CO[C@H]2[C@@H]1OC[C@H]2Oc1nc2nc(NC3CCc4cc(OCC5CCO5)cc(F)c43)c(Cl)cc2[nH]1 (stereo partly shown) [Compound I-1-83] | 2.2 nM | 414% | – |
| CN(C)c1ncc(-c2cc(F)c3c(c2)CC[C@@H]3Nc2nc3nc(O[C@@H]4CO[C@H]5[C@@H]4OC[C@H]5O)[nH]c3cc2Cl)cn1 [Compound I-2-62] | 9.4 nM | 638% | – |
| O[C@@H]1CO[C@H]2[C@@H]1OC[C@H]2Oc1nc2nc(NC3CCc4cc(OCC5(F)COC5)cc(F)c43)c(Cl)cc2[nH]1 (stereo partly shown) [Compound I-1-99] | 4.6 nM | 422% | – |
| COC/C=C/c1cc(F)c2c(c1)CCC2Nc1nc2[nH]c(O[C@@H]3CO[C@H](CO)C3)nc2cc1Cl (stereo partly shown) [Compound I-1-24] | 25 nM | 423% | – |
| Cn1cc(-c2cnc3c(c2)CCC3Nc2nc3nc(O[C@@H]4CO[C@H]5[C@@H]4OC[C@H]5O)[nH]c3cc2Cl)cn1 (stereo partly shown) [Compound I-1-7] | 1.6 nM | 614% | – |
| COc1ccc(-c2cc(F)c3c(c2)CCC3Nc2nc3nc(O[C@@H]4CO[C@H]5[C@@H]4OC[C@H]5O)[nH]c3cc2Cl)cn1 (stereo partly shown) [Compound I-1-86] | 28 nM | – | 379% |
| Cn1nccc1-c1cc(F)c2c(c1)CCC2Oc1nc2nc(O[C@@H]3CO[C@H]4[C@@H]3OC[C@H]4O)[nH]c2cc1Cl (stereo partly shown) [Compound I-1-76] | 15 nM | 378% | – |
| O[C@@H]1CO[C@H]2[C@@H]1OC[C@H]2Oc1nc2nc(N[C@H]3CCc4cc(-c5ccc(C(F)(F)F)nc5)cc(F)c43)c(Cl)cc2[nH]1 [Compound I-2-67] | 29 nM | 683% | – |
| OCCOc1cc(F)c2c(c1)CCC2Nc1nc2nc(O[C@@H]3CO[C@H]4[C@@H]3OC[C@H]4O)[nH]c2cc1Cl (stereo partly shown) [Compound I-1-32] | 2.3 nM | 389% | – |
| CC(C)OCCOc1cc(F)c2c(c1)CCC2Nc1nc2nc(O[C@@H]3CO[C@H]4[C@@H]3OC[C@H]4O)[nH]c2cc1Cl (stereo partly shown) [Compound I-2-36] | 3.9 nM | 698% | – |
| O[C@@H]1CO[C@H]2[C@@H]1OC[C@H]2Oc1nc2nc(NC3CCc4cc(OCCF)cc(F)c43)c(Cl)cc2[nH]1 (stereo partly shown) [Compound I-2-06] | 3.6 nM | – | 707% |
| O[C@@H]1CO[C@H]2[C@@H]1OC[C@H]2Oc1nc2nc(N[C@H]3CCc4cc(-c5cncnc5)cc(F)c43)c(Cl)cc2[nH]1 [Compound I-2-61] | 3.1 nM | 649% | – |
| O=C(NCCOc1cc(F)c2c(c1)CCC2Nc1nc2nc(O[C@@H]3CO[C@H]4[C@@H]3OC[C@H]4O)[nH]c2cc1Cl)C1CCC1 (stereo partly shown) [Compound I-2-34] | 6.6 nM | 719% | – |
| O=C(COc1cc(F)c2c(c1)CCC2Nc1nc2nc(O[C@@H]3CO[C@H]4[C@@H]3OC[C@H]4O)[nH]c2cc1Cl)NCO (stereo partly shown) [Compound I-1-43] | 6.5 nM | 392% | – |
| O[C@@H]1CO[C@H]2[C@@H]1OC[C@H]2Oc1nc2nc(NC3CCc4cc(C5=CCOCC5)cnc43)c(Cl)cc2[nH]1 (stereo partly shown) [Compound I-1-48] | 15 nM | 393% | – |
| Cn1cc(-c2cc(F)c3c(c2)CCC3Nc2nc3nc(O[C@@H]4CO[C@H]5[C@@H]4OC[C@H]5O)[nH]c3cc2Cl)ccc1=O (stereo partly shown) [Compound I-1-106] | 1.4 nM | 462% | – |
| NC(=O)COc1cc(F)c2c(c1)CCC2Nc1nc2nc(O[C@@H]3CO[C@H]4[C@@H]3OC[C@H]4O)[nH]c2cc1Cl (stereo partly shown) [Compound I-1-42] | 2.1 nM | 391% | – |
